For data set [1] the following is noted: female, human, in vivo.
Data set [2] is described as follows: clinical. To be noted: female, human, 200 mg; for Vd/F / half-life: in vivo; for AUC: 200 mg once daily, steady state, AUC0-24, noncompartmental.
For data set [3] the following is noted: cited from earlier work.
The test system of another data set is wild-type HIV-1. To be noted: mean in vitro, wild-type HIV-1 viral replication; ref not given; cited from earlier work.
For data set [4] the following is noted: for Women with detectable emtricitabine concentrations at pre-dose sampling: limit of detection 0.0118 mg/L.
The nature of data set [5]: clinical. To be noted: female, human, in vivo, 200 mg.
A further data set deals with HIV-1. The settings on record: combination antiretroviral regimen.
For data set [6] the following is noted: in vivo; cited from earlier work.
Setting [7] is: postpartum (n = 22), geometric least-squares mean (90% CI).
[8] abbreviates: third trimester (n = 26), geometric least-squares mean (90% CI).

≈ marks a conversion by molar mass, not a printed value. Where “and” joins values, the source holds several entries; their conditions need not be identical. Equal values may be shown once. Read-outs that look alike come from different tables or passages of the source.

Broadly, the Vd/F is the volume of distribution divided by bioavailability. As usually defined, the half-life is how long it takes for the measured level to halve. In general, AUC refers to concentration integrated over time. What is called CL/F is clearance divided by bioavailability, as obtained after extravascular dosing. The term IC90 denotes the concentration at which the effect reaches the 90% level. On to `Nc1nc(=O)n([C@@H]2CS[C@H](CO)O2)cc1F` [emtricitabine], for which the “Maternal plasma concentration at delivery” value in [1] was 0.15 mg/L. The results for the Vd/F in “clinical [2]” (setting [7]) and in “clinical [2]” (setting [8]) were 301 L and 334 L, respectively. Further, the half-life in the data set “clinical [2]” (t1/2, postpartum (n = 22), geometric least-squares mean (90% CI)) was 10.1 h; in “clinical [2]” (t1/2, third trimester (n = 26), geometric least-squares mean (90% CI)) it was 9.3 h. Also, the Cmax in the data set “clinical [2]” (plasma, oral) was 1400 ng/mL; in [3] (in vivo) it was 1800 ± 700 ng/mL; in data set [4] (setting [7]), 1.4 (1.3–1.7) mg/L. Further, the tmax in “clinical [2]” (plasma, oral) is 2 h; in [4] (postpartum (n = 22), median (range)), 2.0 (min–max: 1–6) hours. The AUC was 9700 ng·h/mL in the data set “clinical [2]” (plasma, oral, postpartum (n = 22), geometric least-squares mean (90% CI)); 8000 ng·h/mL in “clinical [2]” (plasma, oral, third trimester (n = 26), geometric least-squares mean (90% CI)); 10000 ng·h/mL in [3] (in vivo, 200 mg). Moreover, the concentration at 24 h in the data set “clinical [2]” (plasma, oral, C24 (24 hour post dose concentration), postpartum (n = 22), geometric least-squares mean (90% CI)) worked out at 85 ng/mL; in the data set “clinical [2]” (plasma, oral, C24 (24 hour post dose concentration), third trimester (n = 26), geometric least-squares mean (90% CI)) it was 58 ng/mL; in the data set “clinical [2]” (plasma, oral, Lowest C24, postpartum), 70 ng/mL. Further, the Minimum adult concentration in [3] (in vivo) is 0.077 mg/L. In addition, in data set [3] (in vivo), the Protein binding result was “low protein binding”. Further, the CL/F in data set [3] (nonpregnant adults, 200 mg once daily) was 18.1 L/h. The “IC50 (drug concentration that suppresses viral replication by half)” value in the data set on wild-type HIV-1 is 0.004 µg/mL (≈ 0.0162 µM). Besides, the IC90 with wild-type HIV-1 is 0.051 µg/mL (≈ 0.206 µM). Moreover, the “Women with detectable emtricitabine concentrations at pre-dose sampling” value is recorded as “All 26 women” in [4] (antepartum) and 18 of 22 in [4] (postpartum). The “Subjects achieving target AUC ≥7.0 mg h/L” value is on record as 58% in data set [4] (during pregnancy, 15 of 26 subjects, 80% CI 45–70%) and 95% in [4] (postpartum, 21 of 22 subjects, 80% CI 89–100%). In addition, the “C24 (24 hour post dose concentration)” value in [4] (setting [7]) is 0.085 mg/L; in data set [4] (postpartum (n = 22), geometric least-squares mean (90% CI), listed as Emtricitabine) it was 0.085 (0.07–0.1) mg/L; in data set [4] (setting [8]), 0.058 mg/L. Further, in data set [4] (pregnancy compared with postpartum), the “Magnitude of the AUC decrease during pregnancy” value is given as “less than 20%”. Moreover, the “Subjects with grade 3 adverse events of elevated bilirubin” value (human, in vivo) was “three subjects”. Besides, the Tolerability result (human, in vivo) is recorded as “well tolerated”. Further, under “lachrymal duct stenosis, grade 3 vesicoureteral reflux, deemed not related to the antiretroviral regimen”, the “Congenital anomalies in infants” value is on record as “two infants”. Further, in the data set “clinical [5]”, the Kp was 1.2. Also, the “Women with viral load <400 HIV-1 RNA copies/mL” value in the data set on HIV-1 (postpartum) is 15 of 19 and 15; with HIV-1 (third trimester), 24 of 26.
For `Cc1ccnc2c1NC(=O)c1cccnc1N2C1CC1` [nevirapine], the “Reduction of exposure during pregnancy” value in [6] is 10–20%.

Values taken from article PMC3342997 (HIV Medicine, 2011).
